This passage reports inhibition results from ChEMBL document CHEMBL4507291 (2021).

Experiment [1] concerns the target Mitogen-activated protein kinase 3 (Homo sapiens) (UniProt P27361). In words: Inhibition of Protein Serine/Threonine Kinase, MAPK3 (ERK1) at 10 µM in the Eurofins-Panlabs enzyme assay (Eurofins_assay_171000). The settings on record: Compound concentration 10.0 uM.
The target of experiment [2] is Calcium/calmodulin-dependent protein kinase type 1D (Homo sapiens) (UniProt Q8IU85). Put plainly: CAMK1D (CaMKI delta) Kinase screen. The conditions noted are these: Compound concentration 1.0 uM.
The target of experiment [3] is Casein kinase I isoform epsilon (Homo sapiens) (UniProt P49674). In words: CSNK1E (CK1 epsilon) Kinase screen. The settings on record: Compound concentration 1.0 uM.
The target of experiment [4] is T1, Mitogen-activated protein kinase kinase kinase 2 (Homo sapiens) (UniProt Q9Y2U5).
T1 sequence (whole entry): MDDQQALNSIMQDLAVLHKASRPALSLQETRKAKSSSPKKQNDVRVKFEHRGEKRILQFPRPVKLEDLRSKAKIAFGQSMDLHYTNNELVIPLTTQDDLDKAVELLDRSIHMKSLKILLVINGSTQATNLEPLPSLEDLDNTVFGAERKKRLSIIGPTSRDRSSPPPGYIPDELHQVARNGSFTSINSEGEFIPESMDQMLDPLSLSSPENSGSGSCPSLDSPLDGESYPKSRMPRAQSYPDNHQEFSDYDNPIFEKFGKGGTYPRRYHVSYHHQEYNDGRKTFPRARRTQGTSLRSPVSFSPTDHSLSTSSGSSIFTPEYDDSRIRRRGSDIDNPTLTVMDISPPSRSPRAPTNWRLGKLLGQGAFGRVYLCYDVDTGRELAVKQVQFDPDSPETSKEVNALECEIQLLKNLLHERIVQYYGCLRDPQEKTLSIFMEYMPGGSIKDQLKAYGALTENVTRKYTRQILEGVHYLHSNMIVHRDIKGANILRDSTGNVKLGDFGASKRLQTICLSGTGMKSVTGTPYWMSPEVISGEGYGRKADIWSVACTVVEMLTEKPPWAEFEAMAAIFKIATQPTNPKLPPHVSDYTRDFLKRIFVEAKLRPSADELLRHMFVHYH
In words: MAP3K2 (MEKK2) Kinase screen. The settings on record: Compound concentration 1.0 uM.

In experiment [5] the target is MAP kinase-activated protein kinase 2 (Homo sapiens) (UniProt P49137). In words: MAPKAPK2 Kinase screen. The conditions noted are these: Compound concentration 1.0 uM.
The target of experiment [6] is T2, MAP kinase-activated protein kinase 5 (Homo sapiens) (UniProt Q8IW41).
T2 sequence (whole entry): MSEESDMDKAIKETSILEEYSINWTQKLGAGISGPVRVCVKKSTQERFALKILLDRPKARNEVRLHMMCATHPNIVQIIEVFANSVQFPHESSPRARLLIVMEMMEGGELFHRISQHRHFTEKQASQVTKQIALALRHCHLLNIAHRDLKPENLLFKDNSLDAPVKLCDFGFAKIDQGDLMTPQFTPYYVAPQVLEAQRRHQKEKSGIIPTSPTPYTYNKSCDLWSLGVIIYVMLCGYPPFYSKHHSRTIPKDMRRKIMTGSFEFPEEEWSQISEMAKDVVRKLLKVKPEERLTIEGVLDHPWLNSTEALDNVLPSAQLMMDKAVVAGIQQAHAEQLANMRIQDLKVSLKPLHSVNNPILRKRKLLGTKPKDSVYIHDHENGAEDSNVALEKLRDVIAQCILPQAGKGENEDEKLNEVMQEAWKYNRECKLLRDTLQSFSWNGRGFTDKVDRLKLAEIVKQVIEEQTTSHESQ
Put plainly: MAPKAPK5 (PRAK) Kinase screen. The settings on record: Compound concentration 1.0 uM.

The target in experiment [7] is Serine/threonine-protein kinase MARK1 (Homo sapiens) (UniProt Q9P0L2). Put plainly: MARK1 (MARK) Kinase screen. The settings on record: Compound concentration 1.0 uM.
Experiment [8] addresses Serine/threonine-protein kinase PAK 6 (Homo sapiens) (UniProt Q9NQU5). In words: PAK6 Kinase screen. The conditions noted are these: Compound concentration 1.0 uM.
Experiment [9] relates to Platelet-derived growth factor receptor alpha (Homo sapiens), P16234 [T674I]. Put plainly: PDGFRA T674I Kinase screen. The settings on record: Compound concentration 1.0 uM.
Experiment [10] has as its target T3, Serine/threonine-protein kinase D3 (Homo sapiens) (UniProt O94806).
T3 sequence (whole entry): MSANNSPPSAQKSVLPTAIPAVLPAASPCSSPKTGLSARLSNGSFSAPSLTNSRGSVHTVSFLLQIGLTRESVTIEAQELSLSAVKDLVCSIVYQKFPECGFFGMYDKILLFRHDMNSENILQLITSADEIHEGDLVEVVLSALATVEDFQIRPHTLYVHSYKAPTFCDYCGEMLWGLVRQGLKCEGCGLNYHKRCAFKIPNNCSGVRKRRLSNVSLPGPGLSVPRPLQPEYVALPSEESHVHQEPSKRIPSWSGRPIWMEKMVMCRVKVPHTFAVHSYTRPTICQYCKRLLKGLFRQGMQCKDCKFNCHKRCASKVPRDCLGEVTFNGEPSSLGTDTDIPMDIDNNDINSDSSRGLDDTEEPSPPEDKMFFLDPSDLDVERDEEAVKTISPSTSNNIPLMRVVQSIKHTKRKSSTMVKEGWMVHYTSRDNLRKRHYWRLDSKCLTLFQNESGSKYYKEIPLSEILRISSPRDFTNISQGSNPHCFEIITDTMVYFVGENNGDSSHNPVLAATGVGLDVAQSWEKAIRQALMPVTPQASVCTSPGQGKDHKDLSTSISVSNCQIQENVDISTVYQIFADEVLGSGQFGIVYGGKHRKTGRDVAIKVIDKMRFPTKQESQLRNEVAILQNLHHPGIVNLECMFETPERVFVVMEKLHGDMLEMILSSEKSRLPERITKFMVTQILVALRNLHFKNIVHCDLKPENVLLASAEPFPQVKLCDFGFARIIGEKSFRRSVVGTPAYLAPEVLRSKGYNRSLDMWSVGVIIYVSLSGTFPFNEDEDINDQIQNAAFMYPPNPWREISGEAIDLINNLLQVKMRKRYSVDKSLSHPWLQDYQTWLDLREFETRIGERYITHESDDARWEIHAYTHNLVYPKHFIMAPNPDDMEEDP
In words: PRKCN (PKD3) Kinase screen. The settings on record: Compound concentration 1.0 uM.

Experiment [11] has as its target STE20-like serine/threonine-protein kinase (Homo sapiens) (UniProt Q9H2G2). In words: SLK Kinase screen. The settings on record: Compound concentration 1.0 uM.
Experiment [12] deals with SRSF protein kinase 1 (Homo sapiens) (UniProt Q96SB4). Put plainly: SRPK1 Kinase screen. The conditions noted are these: Compound concentration 1.0 uM.
The target in experiment [13] is Melanocyte-stimulating hormone receptor (Homo sapiens) (UniProt Q01726). Put plainly: Melanocortin MC1 Eurofins-Panlabs radioligand binding assay. The settings on record: Compound concentration 10.0 uM.
Experiment [14] addresses 5-hydroxytryptamine receptor 2B (Homo sapiens, UniProt P41595).

Chain of 5-hydroxytryptamine receptor 2B (P41595 whole entry): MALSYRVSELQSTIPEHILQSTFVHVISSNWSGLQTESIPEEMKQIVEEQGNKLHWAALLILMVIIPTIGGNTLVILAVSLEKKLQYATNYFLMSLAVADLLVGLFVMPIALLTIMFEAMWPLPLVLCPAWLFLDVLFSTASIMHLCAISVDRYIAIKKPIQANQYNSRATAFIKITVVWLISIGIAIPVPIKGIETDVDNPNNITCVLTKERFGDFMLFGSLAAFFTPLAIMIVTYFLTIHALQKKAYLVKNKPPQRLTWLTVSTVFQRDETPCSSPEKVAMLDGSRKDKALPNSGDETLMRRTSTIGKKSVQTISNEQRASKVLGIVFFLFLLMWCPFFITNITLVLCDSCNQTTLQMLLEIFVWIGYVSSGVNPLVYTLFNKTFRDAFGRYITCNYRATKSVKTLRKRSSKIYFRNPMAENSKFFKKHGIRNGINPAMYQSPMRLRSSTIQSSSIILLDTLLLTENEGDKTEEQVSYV
Chain of STE20-like serine/threonine-protein kinase (Homo sapiens) (Q9H2G2 whole entry, looked up): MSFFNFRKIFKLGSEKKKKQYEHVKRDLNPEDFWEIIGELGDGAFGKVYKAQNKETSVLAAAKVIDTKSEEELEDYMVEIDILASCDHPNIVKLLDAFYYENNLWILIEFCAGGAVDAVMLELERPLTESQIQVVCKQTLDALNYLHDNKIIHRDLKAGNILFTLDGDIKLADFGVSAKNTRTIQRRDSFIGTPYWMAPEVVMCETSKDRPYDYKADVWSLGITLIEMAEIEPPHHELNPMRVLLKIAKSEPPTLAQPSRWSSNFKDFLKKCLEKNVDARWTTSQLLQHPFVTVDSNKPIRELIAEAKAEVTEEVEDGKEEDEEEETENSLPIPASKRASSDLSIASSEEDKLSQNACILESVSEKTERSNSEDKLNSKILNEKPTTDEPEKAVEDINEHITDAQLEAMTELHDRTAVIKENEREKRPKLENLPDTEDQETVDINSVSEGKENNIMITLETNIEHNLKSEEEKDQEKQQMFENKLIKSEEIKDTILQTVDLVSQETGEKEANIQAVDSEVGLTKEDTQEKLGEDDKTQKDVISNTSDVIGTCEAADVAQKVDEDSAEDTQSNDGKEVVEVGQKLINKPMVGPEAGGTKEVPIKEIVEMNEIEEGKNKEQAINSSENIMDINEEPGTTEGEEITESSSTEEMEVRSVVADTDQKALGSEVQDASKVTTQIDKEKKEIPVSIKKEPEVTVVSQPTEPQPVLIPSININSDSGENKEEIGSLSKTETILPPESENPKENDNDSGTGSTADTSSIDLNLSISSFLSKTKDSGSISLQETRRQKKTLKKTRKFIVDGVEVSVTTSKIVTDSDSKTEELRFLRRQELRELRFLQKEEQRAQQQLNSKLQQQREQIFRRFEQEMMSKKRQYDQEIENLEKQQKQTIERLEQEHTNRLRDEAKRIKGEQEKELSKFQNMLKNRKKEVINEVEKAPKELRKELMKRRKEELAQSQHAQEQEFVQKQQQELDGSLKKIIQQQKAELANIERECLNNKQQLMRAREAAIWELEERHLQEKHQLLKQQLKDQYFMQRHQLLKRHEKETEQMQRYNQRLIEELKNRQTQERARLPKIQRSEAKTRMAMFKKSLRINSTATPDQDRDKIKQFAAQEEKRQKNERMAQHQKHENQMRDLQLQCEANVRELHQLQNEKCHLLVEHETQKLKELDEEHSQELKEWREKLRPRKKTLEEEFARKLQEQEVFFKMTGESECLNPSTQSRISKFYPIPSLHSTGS
Chain of Mitogen-activated protein kinase 3 (Homo sapiens) (P27361 whole entry): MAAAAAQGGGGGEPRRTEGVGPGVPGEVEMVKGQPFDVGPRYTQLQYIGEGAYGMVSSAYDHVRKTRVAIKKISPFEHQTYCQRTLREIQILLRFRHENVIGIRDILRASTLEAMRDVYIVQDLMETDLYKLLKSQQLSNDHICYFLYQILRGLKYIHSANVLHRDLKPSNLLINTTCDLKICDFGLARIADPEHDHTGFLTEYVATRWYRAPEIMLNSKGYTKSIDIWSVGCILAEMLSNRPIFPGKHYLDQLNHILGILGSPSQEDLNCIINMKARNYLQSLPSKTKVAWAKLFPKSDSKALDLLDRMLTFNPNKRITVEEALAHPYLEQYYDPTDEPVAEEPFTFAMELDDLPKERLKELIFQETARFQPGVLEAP
Chain of Melanocyte-stimulating hormone receptor (Homo sapiens) (Q01726 whole entry, looked up): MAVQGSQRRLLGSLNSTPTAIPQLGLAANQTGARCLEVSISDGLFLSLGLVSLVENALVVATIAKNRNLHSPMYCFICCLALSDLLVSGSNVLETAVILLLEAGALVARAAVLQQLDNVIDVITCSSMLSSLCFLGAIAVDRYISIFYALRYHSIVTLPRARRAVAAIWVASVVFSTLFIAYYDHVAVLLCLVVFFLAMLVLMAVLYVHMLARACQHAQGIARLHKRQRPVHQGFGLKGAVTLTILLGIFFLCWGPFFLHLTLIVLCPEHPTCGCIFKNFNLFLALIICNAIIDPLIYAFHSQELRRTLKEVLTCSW
Chain of SRSF protein kinase 1 (Homo sapiens) (Q96SB4 whole entry): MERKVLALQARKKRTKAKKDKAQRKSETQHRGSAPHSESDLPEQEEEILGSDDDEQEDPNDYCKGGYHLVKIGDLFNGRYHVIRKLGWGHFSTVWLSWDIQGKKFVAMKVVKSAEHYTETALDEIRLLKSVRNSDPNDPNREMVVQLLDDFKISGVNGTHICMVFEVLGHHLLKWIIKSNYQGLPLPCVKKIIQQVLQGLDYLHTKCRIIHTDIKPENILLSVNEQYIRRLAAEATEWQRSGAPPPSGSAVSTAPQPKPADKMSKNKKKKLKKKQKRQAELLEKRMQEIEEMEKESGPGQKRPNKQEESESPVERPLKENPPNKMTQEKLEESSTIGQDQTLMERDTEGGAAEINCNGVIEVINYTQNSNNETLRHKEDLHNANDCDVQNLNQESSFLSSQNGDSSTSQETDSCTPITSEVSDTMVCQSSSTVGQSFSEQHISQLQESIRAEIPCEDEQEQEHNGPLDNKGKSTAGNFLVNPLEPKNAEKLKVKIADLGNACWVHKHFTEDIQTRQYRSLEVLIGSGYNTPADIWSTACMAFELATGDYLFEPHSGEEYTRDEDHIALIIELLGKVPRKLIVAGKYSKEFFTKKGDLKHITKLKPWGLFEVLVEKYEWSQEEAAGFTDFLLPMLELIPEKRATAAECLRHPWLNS
Chain of Serine/threonine-protein kinase PAK 6 (Homo sapiens) (Q9NQU5 whole entry, looked up): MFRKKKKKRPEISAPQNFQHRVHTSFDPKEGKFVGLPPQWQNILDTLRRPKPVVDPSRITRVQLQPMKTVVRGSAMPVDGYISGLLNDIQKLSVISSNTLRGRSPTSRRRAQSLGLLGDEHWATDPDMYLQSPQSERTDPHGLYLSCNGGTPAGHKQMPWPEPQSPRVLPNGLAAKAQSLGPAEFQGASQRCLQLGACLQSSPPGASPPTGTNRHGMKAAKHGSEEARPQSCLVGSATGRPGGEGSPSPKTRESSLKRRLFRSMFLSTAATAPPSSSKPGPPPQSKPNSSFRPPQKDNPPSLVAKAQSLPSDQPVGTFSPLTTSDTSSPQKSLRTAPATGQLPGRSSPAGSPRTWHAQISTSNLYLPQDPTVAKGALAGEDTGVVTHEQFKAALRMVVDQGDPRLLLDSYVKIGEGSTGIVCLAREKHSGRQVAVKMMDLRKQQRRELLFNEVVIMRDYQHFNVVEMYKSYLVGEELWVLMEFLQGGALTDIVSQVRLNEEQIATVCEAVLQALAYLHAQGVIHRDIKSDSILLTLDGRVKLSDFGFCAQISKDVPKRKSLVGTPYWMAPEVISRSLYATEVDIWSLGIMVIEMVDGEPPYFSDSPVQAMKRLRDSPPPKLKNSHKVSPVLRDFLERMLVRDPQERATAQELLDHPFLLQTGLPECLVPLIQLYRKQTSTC
Chain of MAP kinase-activated protein kinase 2 (Homo sapiens) (P49137 whole entry, looked up): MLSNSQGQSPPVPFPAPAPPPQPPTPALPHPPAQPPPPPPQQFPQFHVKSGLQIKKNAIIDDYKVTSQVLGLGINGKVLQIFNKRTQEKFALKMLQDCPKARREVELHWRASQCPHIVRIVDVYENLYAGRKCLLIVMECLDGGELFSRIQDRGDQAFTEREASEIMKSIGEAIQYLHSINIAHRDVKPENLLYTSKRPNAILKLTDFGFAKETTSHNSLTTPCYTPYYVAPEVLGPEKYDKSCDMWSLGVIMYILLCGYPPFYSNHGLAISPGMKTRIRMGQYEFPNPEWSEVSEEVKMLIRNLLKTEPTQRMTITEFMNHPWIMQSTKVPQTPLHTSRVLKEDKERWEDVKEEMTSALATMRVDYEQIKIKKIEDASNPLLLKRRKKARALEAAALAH
Chain of Calcium/calmodulin-dependent protein kinase type 1D (Homo sapiens) (Q8IU85 whole entry, looked up, canonical isoform): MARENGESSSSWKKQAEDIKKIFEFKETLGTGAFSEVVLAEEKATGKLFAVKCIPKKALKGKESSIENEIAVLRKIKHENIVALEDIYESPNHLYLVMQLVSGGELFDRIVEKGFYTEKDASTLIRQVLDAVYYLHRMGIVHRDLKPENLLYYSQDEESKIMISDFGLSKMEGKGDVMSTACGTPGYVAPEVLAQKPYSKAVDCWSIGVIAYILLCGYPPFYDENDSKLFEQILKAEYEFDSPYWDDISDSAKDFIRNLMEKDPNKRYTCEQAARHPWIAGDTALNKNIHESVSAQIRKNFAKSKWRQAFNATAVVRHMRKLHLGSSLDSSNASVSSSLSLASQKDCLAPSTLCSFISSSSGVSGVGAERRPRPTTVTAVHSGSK
Chain of Casein kinase I isoform epsilon (Homo sapiens) (P49674 whole entry, looked up, canonical isoform): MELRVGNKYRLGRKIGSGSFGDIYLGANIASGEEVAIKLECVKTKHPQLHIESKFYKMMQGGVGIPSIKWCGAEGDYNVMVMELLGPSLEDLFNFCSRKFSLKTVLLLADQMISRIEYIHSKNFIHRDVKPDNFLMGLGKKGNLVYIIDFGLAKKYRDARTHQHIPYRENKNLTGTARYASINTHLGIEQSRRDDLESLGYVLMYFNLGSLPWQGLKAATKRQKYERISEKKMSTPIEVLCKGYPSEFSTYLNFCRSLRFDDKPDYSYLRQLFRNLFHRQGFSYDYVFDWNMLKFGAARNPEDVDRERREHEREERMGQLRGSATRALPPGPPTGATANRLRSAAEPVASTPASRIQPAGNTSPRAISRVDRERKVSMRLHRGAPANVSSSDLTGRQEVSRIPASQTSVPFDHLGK

For `C[C@@H]1CN(c2cc(-c3n[nH]c4ccc(OC5(C)CC5)cc34)ncn2)C[C@H](C)O1` [MLi-2], the inhibition (commonly the change of the read-out against control, counted positive when it falls) was 33% in experiment [1]; 17.4% in [2]; 8.14% in experiment [3]; 7.58% in [4]; 2.35% in experiment [5]; 14.2% in experiment [6]. Moreover, the inhibition was 8.35% in experiment [7]; 1.67% in [8]; 23.5% in [9]; 21.1% in [10]; 1.5% in experiment [11]; 6.15% in experiment [12]. Also, the inhibition in experiment [13] is -1%; in experiment [14] (Compound concentration 0.01 uM), -7%; in experiment [14] (Compound concentration 0.1 uM), 8%; in experiment [14] (Compound concentration 1.0 uM), 44%; in experiment [14] (Compound concentration 10.0 uM), 95%.
